Experimental data from patent US20100016421A1, “METHODS FOR DETERMINING SENSITIVITY TO AMINOFLAVONES” (priority 2008, published 2010).
Read-outs that look alike come from different tables or passages of the source. One block for each compound: values may come before it.

How the values were obtained:
MCF-7 = assay: MTT assay, MCF-7 breast cancer cell line; type: cell-based, human; conditions: for IC50: Homo sapiens, MCF7
Experimental: (§1) The breast cancer cell lines shown in Table 2 were screened to determine the localization of the aryl hydrocarbon receptor (AhR) in accordance with the techniques discussed above. MTT assays were conducted to measure cell death on various breast cancer cell lines.
(§2) The inhibitory concentration 50% were determined by MTT assay and following the NCI DTP in vitro testing procedures (http://dtp.nci.nih.gov/branches/btb/ivclsp.html). Three independent MTT in vitro tumor cell growth inhibition experiments were conducted and a mean IC50 value generated as shown in Table 4.

MCF-7 HER2-18 = assay: MTT assay, MCF-7 HER2-18 cell line; type: cell-based, human; conditions: for IC50: Homo sapiens
Experimental: as §1, §2

MCF-7 TAM1 = assay: MTT assay, MCF-7 TAM1 cell line; type: cell-based, human; conditions: for IC50: Homo sapiens, MCF7:TAM1
Experimental: as §1, §2

T47D = assay: MTT assay, T47D breast cancer cell line; type: cell-based, human; conditions: for IC50: Homo sapiens
Experimental: as §1, §2

MDA-MB-231 = assay: MTT assay, MDA-MB-231 breast cancer cell line; type: cell-based, human; conditions: for IC50: Homo sapiens
Experimental: as §1, §2

MCF10A = assay: MTT assay, MCF10A normal breast cell line; type: cell-based, human; conditions: for IC50: Homo sapiens, MCF-10A
Experimental: as §1, §2

OVCAR-8 = assay: Cytotoxicity, OVCAR-8 ovarian cancer cell line; type: cell-based; conditions: Homo sapiens
Excerpt: (§3) Similarly, the ovarian cancer cell lines shown in Table 3 were screened to determine the localization of the Aryl hydrocarbon receptor (AhR). As shown below, and further illustrated in FIGS. 2 and 3, all cell lines where the AhR is localized predominantly in the cytoplasm (e.g. OVCAR-3 and IGROV-1) were more sensitive to treatment with AFP464 than tumor cells where the AhR is localized predominantly in the nucleus (e.g., OVCAR-8).

ADDP = assay: Cytotoxicity, ADDP ovarian cancer cell line; type: cell-based; conditions: Homo sapiens
Excerpt: as §3

AG6000 = assay: Cytotoxicity, AG6000 ovarian cancer cell line; type: cell-based; conditions: Homo sapiens
Excerpt: as §3

A2780 = assay: Cytotoxicity, A2780 ovarian cancer cell line; type: cell-based; conditions: Homo sapiens
Excerpt: as §3

OVCAR-3 = assay: Cytotoxicity, OVCAR-3 ovarian cancer cell line; type: cell-based; conditions: Homo sapiens
Excerpt: as §3

IGROV-1 = assay: Cytotoxicity (MTT), IGROV-1 ovarian cancer cell line; type: cell-based; conditions: Homo sapiens
Excerpt: as §3
(§4) AhR localization correlates with cytotoxic activity of AFP464, as discussed above. […] The growth curves for all three cell lines resulting from 5 day continuous exposure of the cells to AFP464 in 96-well plates and the detection of cell growth by conversion of methyltetrazolium into formazan by viable cells (MTT assay) are shown. All cell lines in FIG. 3 have defects in the BRCA tumor suppressor genes responsible for very aggressive forms of hereditary breast and ovarian cancer. MX-1 have BRCA1 deletions and BRCA2 mutations, HCC1937 are BRCA1 mutant and completely defective, IGROV1 are defective for BRCA2 (±).

MX-1 = assay: MTT assay, MX-1 triple negative breast cancer cell line; type: cell-based; conditions: Homo sapiens, MX1, 120 h, MX-1, 5 day continuous exposure
Excerpt: as §4

HCC1937 = assay: MTT assay, HCC1937 breast cancer cell line; type: cell-based; conditions: Homo sapiens
Excerpt: as §4, §2

γ-H2AX foci in MCF-7 = assay: Immunofluorescence of phosphorylated γ-H2AX, MCF-7; type: cell-based, human
Excerpt: (§5) The phosphorylated γ-H2AX is an indicator of a DNA-damage response in cells.

[1] = test system: γ-H2AX foci in MCF-7 HER2-18; assay: Immunofluorescence of phosphorylated γ-H2AX, MCF-7 HER2-18; type: cell-based, human
Excerpt: as §5

[2] = test system: γ-H2AX foci in MCF-7 TAM1; assay: Immunofluorescence of phosphorylated γ-H2AX, MCF-7 TAM1; type: cell-based, human
Excerpt: as §5

γ-H2AX foci in T47D = assay: Immunofluorescence of phosphorylated γ-H2AX, T47D; type: cell-based, human
Excerpt: as §5

[3] = test system: γ-H2AX foci in MDA-MB-231; assay: Immunofluorescence of phosphorylated γ-H2AX, MDA-MB-231; type: cell-based, human
Excerpt: as §5

γ-H2AX foci in MCF10a = assay: Immunofluorescence of phosphorylated γ-H2AX, MCF10a; type: cell-based, human
Excerpt: as §5

Maximum tolerated dose = conditions: mouse, in vivo, iv; intravenously
Experimental: Next, the treatment and data evaluation will be discussed. […] The maximum tolerated dose (MTD) for AFP464 was determined prior to initiation of the experiment as 75 mg/kg/d intravenously. […]. […] AFP464 was given on days 1, 3, 5, 15, 17, and 19.

ER-positive cell lines = conditions: NCI 60 screen, read-out: sensitivity (order of magnitude); cited from earlier work
CYP1A1 = assay: Real time PCR of CYP1A1 expression, MDA-MB-231
CYP1B1 = assay: Real time PCR of CYP1B1 expression, MDA-MB-231
[4] = test system: human tumor xenograft MDA-MB-231; assay: MDA-MB-231 subcutaneous xenograft in nude mice
Hs578t = assay: MTT assay, Hs578t breast cancer cell line; type: cell-based, human
Experimental: as §2

ERα in MDA-MB-231 = assay: Western blot of ERα induction, MDA-MB-231; type: cell-based, human; conditions: MDA-MB-231, 60 hours at […] and 13.5 μM
Experimental: Lane 1 of each of FIGS. 4A and 4B is a control in which the respective cells were treated with DMSO.

[5] = in mice; cited from earlier work
BT 20 = assay: MTT assay, BT 20 breast cancer cell line; type: cell-based; conditions: Homo sapiens; BT 20, mean of three independent MTT experiments; read-out: AF IC50
Experimental: as §2

MDA-MB-468 = assay: MTT assay, MDA-MB-468 breast cancer cell line; type: cell-based; conditions: Homo sapiens; MDA-MB-468, mean of three independent MTT experiments; read-out: AF IC50
Experimental: as §2

SKBR3 = assay: MTT assay, SKBR3 breast cancer cell line; type: cell-based; conditions: Homo sapiens, SK-BR-3; SKBR3, mean of three independent MTT experiments; read-out: AF IC50
Experimental: as §2

[6] = test system: ER-negative, or “triple-negative,” or basal B breast cancer cell lines; assay: Sensitivity to aminoflavone after HDAC inhibitor pre-treatment; type: cell-based; conditions: Homo sapiens
[7] = test system: SKBR3, T47D, MCF-7, MCF-7 Tam1, and MCF-7 Her2-18 cell lines; assay: MTT assay, luminal type cell lines (summary); type: cell-based; conditions: Homo sapiens; range over luminal type cell lines; read-out: AF IC50 concentrations
Experimental: as §2
(§6) The SKBR3, T47D, MCF-7, MCF-7 Tam1, and MCF-7 Her2-18 cell lines are all of a luminal type gene cluster. […] Based on previous NCI cell line screen results discussed above, ER-negative tumors were thought to be resistant to aminoflavone. […] Thus, the gene profile relating to ER status alone may not predict the sensitivity of the tumor to treatment with AF. AFP464 is not only effective in ER-positive breast cancer cells, which are always of luminal type histologies, but are also effective in the basal A subtype of ER-negative breast cancers.

[8] = test system: HCC1937, BT 20, MDA-MB-468, and SKBR3 ER-negative tumor cells; assay: MTT assay, sensitive ER-negative cell lines (summary); type: cell-based; conditions: Homo sapiens; range over sensitive ER-negative cell lines; read-out: AF IC50 concentrations
Experimental: as §2, §6

[9] = MDA-MB-231, SAHA for 48 hours followed by AFP464 for 6 hours
[10] = MDA-MB-231, SAHA for 48 hours followed by AFP464 for 24 hours
[11] = mean of three independent MTT experiments, read-out: AF IC50

Compound: Cc1c(F)c(N)c2c(=O)cc(-c3ccc(NC(=O)[C@@H](N)CCCCN)c(F)c3)oc2c1F [AFP464]
IC50 (MCF-7; MCF-7, MTT, read-out: IC50): 0.016 µM | IC100 (MCF-7; MCF-7, MTT): 300 nM | IC50 (MCF-7 HER2-18; MCF-7 HER2-18, MTT, read-out: IC50): 0.02 µM | IC100 (MCF-7 HER2-18; MCF-7 HER2-18, MTT): 375 nM | IC50 (MCF-7 TAM1; MCF-7 TAM1, MTT, read-out: IC50): 0.025 µM | IC100 (MCF-7 TAM1; MCF-7 TAM1, MTT): 200 nM | IC50 (T47D; MTT, read-out: IC50): 0.014 µM | IC100 (T47D; MTT): 20 nM | IC50 (MDA-MB-231; MDA-MB-231, MTT, read-out: IC50): 25 µM | IC100 (MDA-MB-231; MDA-MB-231, MTT): >100 µM | IC50 (MCF10A; MTT, read-out: IC50): 3 µM | IC100 (MCF10A; MTT): 9 µM | IC50 (OVCAR-8): 13 µM | IC50 (ADDP): 2.5 µM | IC50 (AG6000): > 10 µM | IC50 (A2780): 5 µM | IC50 (OVCAR-3): 0.252 µM | IC50 (IGROV-1; IGROV-1): 0.42 µM | IC50 (IGROV-1; IGROV-1, 120 h, IGROV1, 5 day continuous exposure, MTT): 0.01 to 0.2 µM | IC50 (MX-1): 30 µM | IC50 (HCC1937; 120 h, HCC1937, 5 day continuous exposure, MTT, read-out: IC50): 0.01 to 0.2 µM | γ-H2AX Foci (γ-H2AX foci in MCF-7): yes | γ-H2AX Foci [1]: yes | γ-H2AX Foci [2]: yes | γ-H2AX Foci (γ-H2AX foci in T47D): yes | γ-H2AX Foci [3]: no | γ-H2AX Foci (γ-H2AX foci in MCF10a): no | MTD (Maximum tolerated dose): 75 mg/kg/day | IC50 (ER-positive cell lines): ~0.01 µM | expression of RNA for CYP1A1 (CYP1A1; [9]): increased expression | expression of RNA for CYP1A1 (CYP1A1; [10]): little expression | expression of RNA for CYP1B1 (CYP1B1; [9]): increased expression | expression of RNA for CYP1B1 (CYP1B1; [10]): little expression | % Growth Inhibition [d29] ([4]; AFP464 35 mg/kg i.v. Day 1, 3, 5, 15, 17, 19): 23% | Opt. Test/Control % [d] ([4]; AFP464 35 mg/kg i.v. Day 1, 3, 5, 15, 17, 19, optimum d26): 77 [d26] % | % Growth Inhibition [d29] ([4]; AFP464 70 mg/kg i.v. Day 1, 3, 5, 15): 15% | Opt. Test/Control % [d] ([4]; AFP464 70 mg/kg i.v. Day 1, 3, 5, 15, optimum d28): 85 [d28] %

Compound: O=C(CCCCCCC(=O)Nc1ccccc1)NO [SAHA, suberoylanilide hydroxamic acid, reference compound]
IC100 (MDA-MB-231; SAHA in MDA-MB-231): 13.5 µM | IC100 (Hs578t; SAHA in Hs578T): 100 µM | ERα induction (ERα in MDA-MB-231): increases | MTD [5]: 175 mg/kg/day | Opt. Test/Control % [d] ([4]; Vorinostat 50 mg/kg p.o. Day −3 to −1, 12-14, optimum d26): 71 [d26] %

IC50 (MCF-7; MCF-7, mean of three independent MTT experiments, read-out: AF IC50): 0.016 µM | IC50 (MCF-7 HER2-18; MCF-7 Her2-18, mean of three independent MTT experiments, read-out: AF IC50): 0.02 µM | IC50 (MCF-7 TAM1; MCF-7 Tam1, mean of three independent MTT experiments, read-out: AF IC50): 0.025 µM | IC50 (T47D; [11]): 0.014 µM | IC50 (MDA-MB-231; MDA-MB-231, mean of three independent MTT experiments, read-out: AF IC50): 25 µM | IC50 (HCC1937; HCC1937, mean of three independent MTT experiments, read-out: AF IC50): 0.01 µM | IC50 (Hs578t; Homo sapiens, Hs-578T, Hs578t, mean of three independent MTT experiments, read-out: AF IC50): 20 µM | IC50 (BT 20): 0.02 µM | IC50 (MDA-MB-468): 0.012 µM | IC50 (SKBR3): 0.016 µM | IC50 [6]: ~1 µM | IC50 [7]: 0.016 to 0.02 µM | IC50 [8]: 0.01 to 0.02 µM
Compound: Cc1c(F)c(N)c2c(=O)cc(-c3ccc(N)c(F)c3)oc2c1F [AF, aminoflavone]
IC50 (MCF10A; [11]): 3 µM
